Results from patent US5079257A, “Indoloquinone compounds” (priority 1986, dated 1992).
≈ marks a conversion by molar mass, not a printed value. Read-outs that look alike come from different tables or passages of the source.

Assays:
Ovarian (MRI-H-207) line = assay type: in vivo, human
Excerpt: The xenograft experiments have been carried by Dr. H. H. Fiebig of the University of Freiburg [Lung-NSCLC (LXGF) line, Renal line, Breast line; See: H. H. Fiebig et al., Behring Inst. Mitt., 74 343] and by Dr. E. Boven of the Free University Hospital Amsterdam [Ovarian (MRI-H-207) line; See: E. Boven et al., Cancer Res., 45, 86 (1985) and E. Boven et al., Eur. J. Clin. Oncol., 21, 1253 (1985)].
Mice: C57B1 athymic (nu/nu) female mice, 8 to 10 weeks of age were used for s.c. bilateral implantation of tumour fragments 2 mm diameter.
Treatment: E.O. 9 was dissolved in saline at a concentration of 0.5 mg/ml prior to administration. Drug doses and schedules were derived from studies in experimental murine tumour systems and from orientation studies in non-tumour-bearing nude mice. Treatment was started i.v. when tumours measured 50-150 mm^3. After randomization a group of 6-7 tumour-bearing mice was treated and a group of 5-6 tumour-bearing mice served as control.
Evaluation of efficacy: Tumours were measured twice weekly in three dimensions. Efficacy was expressed as the mean of relative tumour volume in treated animals vs. that in control animals×100 (% T/C). The optimal value was calculated within 35 days after the last injection. Toxic death (dead mice within two weeks after the last injection) were excluded from the evaluation.
MRI-H-207: An undifferentiated adenocarcinoma kindly provided by Dr. A. E. Bogden, Worcester, Mass, with a doubling time of 3-5 days.

WiDr cells; colon tumour = test: In vitro panel of human tumour lines (TNO): WiDr; assay type: cell-based; conditions: about 72 hours; note: key: -: no inhibition of cell growth; +: total cell-kill
Experimental: (§1) Compounds E.O. 1, E.O. 2, E.O. 4, E.O. 4A, E.O. 8, E.O. 9, […], E.O. 33, and E.O. 35 were tested for their activity against five human tumour cell lines at the Radiobiological Institute TNO Rijswijk.
(§2) The new in vitro prescreen uses human tumour clones; it was set up by Dr. P. Lelieveld at TNO Rijswijk and comprises testing compounds in a bioliquid assay for their cytostatic activity against the following five human tumour lines:
(§3) After a continuous exposure to the drugs to be tested and to Adriamycin in `24 well tissue culture clusters, type 3524 (Costar)`, the remaining cells are fixed and stained. Using increasing drug concentrations the inhibiting concentration can be estimated qualitatively.
(§4) Cells: the human tumour cells are maintained in Dulbecco's medium supplemented with 10 percent foetal calf serum.
(§5) M and W cell suspensions: 10^5 cells/ml.
(§6) The cells were grafted into 16 mm wells for 48 hours (0.5 ml cell suspension per well was used).
(§7) Drugs: the compound to be tested was dissolved in appropriate concentrations in a mixture of Hepes-buffered Hanks' balanced salt solution and ethanol. The drug solutions (0.05 ml) were added to the different wells. The final ethanol concentration in each well was less than one percent.
(§8) The cells were continuously incubated with the compound under test at 37° in an atmosphere of 10 percent CO2 in humidified air for about 72 hours.
(§9) Determination of the inhibiting dose: the cells were fixed and stained with a solution of crystal violet in methanol/formaldehyde.

L1210 cells = test: L1210 activity (bioliquid assay), cytotoxicity; assay type: cell-based; conditions: Mus musculus, L1210, 48 h
Excerpt: The indoloquinones II (formula II) have been tested in respect of their cytotoxic activity against L1210 cells and R-1 cells (Rhabdomyosarcoma Cells) in a bioliquid assay at the department of oncology of the Free University of Amsterdam (Table I). In addition to this seven compounds (E.O. 1, E.O. 2, E.O. 4, E.O. 7, E.O. 9, E.O. 16 and E.O. 17) have been tested on L1210 activity in a clonogenic assay at TNO, Rijswijk. Further, the lowest active doses of the compounds E.O. 1, E.O. 2, E.O. 4 and E.O. 9 have been determined at TNO Rijswijk, according to the method described by Lamberts et al. [Oncology, 40, 301 (1983)]. (Table II). Eight indoloquinones (E.O. 1, E.O. 2, E.O. 4, E.O. 4A, E.O. 8, E.O. 9, E.O. 33 and E.O. 35) have been tested in a panel of five human tumour lines (TNO Rijswijk; Table III). From the latter group three indoloquinones (E.O. 1, E.O. 4 and E.O. 9) have been selected for a cytotoxicity study, involving five slowly growing human tumour lines (University of Freiburg; Table IV).
For this purpose, L1210 cells were grown, as suspension, in Falcon multi-wells (growth area: 9.6 cm^2) using RPMI supplemented with 15% FCS and 2-mercapto-ethanol (60 μmol) as medium. In this medium, the cells were continuously incubated with the compound to be tested at 37° C. in an atmosphere of 5% CO2 in humidified air for 48 hours. Thereupon they were counted on a Sysmex microcell counter (CC110).
(§10) The in vitro L1210 and R-1 activities of the indoloquinones (formula III), were also determined in the bioliquid assays as described above.

[1] = system: T 24 cells; bladder carcinoma; test: In vitro panel of human tumour lines (TNO): T 24; assay type: cell-based; conditions: about 72 hours; note: key: -: no inhibition of cell growth; +: total cell-kill
Experimental: as §1, §2, §3, §4
(§11) A, T and Z cell suspensions: 5·10^4 cells/ml
as §6, §7, §8, §9

MCF7 breast cancer cells = test: In vitro panel of human tumour lines (TNO): MCF-7; assay type: cell-based; conditions: about 72 hours; note: key: -: no inhibition of cell growth; +: total cell-kill
Experimental: as §1, §2, §3, §4, §5, §6, §7, §8, §9

[2] = system: A 204 cells; rhabdomyosarcoma; test: In vitro panel of human tumour lines (TNO): A 204; assay type: cell-based; conditions: about 72 hours; note: key: -: no inhibition of cell growth; +: total cell-kill
Experimental: as §1, §2, §3, §4, §11, §6, §7, §8, §9

[3] = system: R-1 cells (Rhabdomyosarcoma Cells); test: R-1 activity (bioliquid assay), cytotoxicity; assay type: cell-based; conditions: Rhabdomyosarcoma cell
Excerpt: The indoloquinones II (formula II) have been tested in respect of their cytotoxic activity against L1210 cells and R-1 cells (Rhabdomyosarcoma Cells) in a bioliquid assay at the department of oncology of the Free University of Amsterdam (Table I). […] (Table II). Eight indoloquinones (E.O. 1, E.O. 2, E.O. 4, E.O. 4A, E.O. 8, E.O. 9, E.O. 33 and E.O. 35) have been tested in a panel of five human tumour lines (TNO Rijswijk; Table III).
For the determination of the R-1 activity, Rhabdomyosarcoma cells were brought into Falcon multiwells (growth area: 9.6 cm^2) (~10^6 cells per dish) containing 3 ml of Dulbecco's medium supplemented with 10% Foeto Calf Serum (FCS). […] Thereupon the drug solution was removed and the cells were covered with fresh medium. After 48 hours the cells were trypsinized and counted on a Sysmex microcell counter (CC110).
as §10

IgR37 cells melanoma = test: In vitro panel of human tumour lines (TNO): IgR-37; assay type: cell-based; conditions: about 72 hours; note: key: -: no inhibition of cell growth; +: total cell-kill
Experimental: as §1, §2, §3, §4, §11, §6, §7, §8, §9

[4] = Half-wave reduction potentials / polarography (University of Utrecht); assay type: physicochemical; conditions: for E1/2, halve wave reduction potential: Table IA, only the first (quinone) reduction potential
Excerpt: *The halve wave reduction potentials (E1/2) have been determined at the
Pharmaceutical Laboratory of University of Utrecht. Only the first
(quinone) reduction potential has been given.
Additional evidence for the occurrence of a bioreductive activation mechanism during the cytotoxic action of indoloquinones (II) was obtained via electrochemical studies, which have been carried out at the Pharmaceutical Laboratory of the University of Utrecht. […]

[5] = 60 mg/kg, days of treatment 0,6,13,20
[6] = Table IA, para-indoloquinone diesters, read-out: ID-50 L1210
[7] = Table IA, para-indoloquinone diesters, read-out: ID-50 R-1
[8] = read-out: ID-50 L1210, Table IA, para-indoloquinone diesters
[9] = read-out: ID-50 R-1, Table IA, para-indoloquinone diesters
[10] = 150 mg/kg, days of treatment 0,9,16

Structure (SMILES): O=c1[nH]cc(F)c(=O)[nH]1 [5FU]
- T/C % (Ovarian (MRI-H-207) line; [5]): 63%
- toxic deaths (Ovarian (MRI-H-207) line; [5]): 0/7

Structure (SMILES): O=P1(N(CCCl)CCCl)NCCCO1 (stereo not drawn) [CTX]
- toxic deaths (Ovarian (MRI-H-207) line): 2/7

Structure (SMILES): N.N.O=C([O-])C1(C(=O)[O-])CCC1.[Pt+2] [Carboplatin]
- toxic deaths (Ovarian (MRI-H-207) line; 60 mg/kg, days of treatment 0.6): 0/6

Structure (SMILES): COc1cccc2c1C(=O)c1c(O)c3c(c(O)c1C2=O)C[C@@](O)(C(=O)CO)C[C@@H]3O[C@H]1C[C@H](N)[C@H](O)[C@H](C)O1 [DXR]
- toxic deaths (Ovarian (MRI-H-207) line; 10 mg/kg, days of treatment 0.7): 1/6

Structure (SMILES): CC1CN1C1=CC(=O)c2c(c(CO)c(/C=C/CO)n2C)C1=O (stereo not drawn) [E.O. 8, 3-Hydroxymethyl-1-methyl-5-propyleneamino-2-[1H-indole-4,7-dione]prop-β-en-α-ol]
- in vitro activity score, WiDr (WiDr cells; colon tumour; 0.01 μg/ml): -
- in vitro activity score, WiDr (WiDr cells; colon tumour; 0.1 μg/ml): -
- in vitro activity score, WiDr (WiDr cells; colon tumour; 1.0 μg/ml): -
- IC50 (L1210 cells; read-out: ID-50 L1210, Table I, bioliquid assay, 48 hours): 0.5 µg/mL (≈ 1.65 µM)
- IC50 (L1210 cells; read-out: ID-50 L1210, Table VIII): 0.48 µg/mL (≈ 1.59 µM)
- in vitro activity score, T 24 ([1]; 0.01 μg/ml): -
- in vitro activity score, T 24 ([1]; 0.1 μg/ml): -
- in vitro activity score, T 24 ([1]; 1.0 μg/ml): -
- in vitro activity score, MCF-7 (MCF7 breast cancer cells; 0.01 μg/ml): -
- in vitro activity score, MCF-7 (MCF7 breast cancer cells; 0.1 μg/ml): -
- in vitro activity score, MCF-7 (MCF7 breast cancer cells; 1.0 μg/ml): -
- in vitro activity score, MCF-7 (MCF7 breast cancer cells; 10 μg/ml): -
- in vitro activity score, A 204 ([2]; 0.01 μg/ml): -
- in vitro activity score, A 204 ([2]; 0.1 μg/ml): -
- in vitro activity score, A 204 ([2]; 1.0 μg/ml): -
- IC50 ([3]; read-out: ID-50 R-1, Table VIII): 7.6 µg/mL (≈ 25.1 µM)
- in vitro activity score, IgR-37 (IgR37 cells melanoma; 0.01 μg/ml): -
- in vitro activity score, IgR-37 (IgR37 cells melanoma; 0.1 μg/ml): -
- in vitro activity score, IgR-37 (IgR37 cells melanoma; 1.0 μg/ml): -
- in vitro activity score, IgR-37 (IgR37 cells melanoma; 10 μg/ml): +
- half-wave potential E1.2, wave I ([4]; pH = 8 vs Ag/AgCl): -380 mV
- half-wave potential E1.2, wave II ([4]; pH = 8 vs Ag/AgCl): -780 mV

Structure (SMILES): COC(=O)/C=C/c1c(C(=O)OC)c2c(n1C)C(=O)C=C(O)C2=O [E.O. 24, Methyl 5-hydroxy-3-methoxycarbonyl-1-methyl-2-[1H-indole-4,7-dione]acrylate]
- IC50 (L1210 cells; [6]): > 10 µg/mL
- IC50 [3, 7]: > 10 µg/mL
- E1/2, halve wave reduction potential [4]: -299 mV

Structure (SMILES): COC(=O)/C=C/c1c(C(=O)OC)c2c(n1C)C(=O)C=C(N1CC1C)C2=O (stereo not drawn) [E.O. 28, Methyl 3-methoxycarbonyl-1-methyl-5-propyleneamino-2-[1H-indole-4,7-dione]acrylate]
- IC50 (L1210 cells; [8]): 2.2 µg/mL (≈ 6.14 µM)
- IC50 [3, 9]: 5.7 µg/mL (≈ 15.9 µM)
- E1/2, halve wave reduction potential [4]: -171 mV

Structure (SMILES): COC(=O)/C=C/c1[nH]c2c(c1C(=O)OC)C(=O)C(OC)=CC2=O [E.O. 29, Methyl 5-methoxy-3-methoxycarbonyl-2-[1H-indole-4,7-dione]acrylate]
- IC50 (L1210 cells; [6]): 2.2 µg/mL (≈ 6.89 µM)
- IC50 [3, 7]: 4.9 µg/mL (≈ 15.3 µM)
- E1/2, halve wave reduction potential [4]: -211 mV

Structure (SMILES): COC(=O)/C=C/c1c(C(=O)OC)c2c(n1C)C(=O)C(C)=C(N1CC1)C2=O [E.O. 34, Methyl 5-aziridino-1,6-dimethyl-3-methoxycarbonyl-2-[1H-indole-4,7-dione]acrylate]
- IC50 (L1210 cells; [8]): 2.7 µg/mL (≈ 7.53 µM)
- IC50 [3, 9]: 2.8 µg/mL (≈ 7.81 µM)
- E1/2, halve wave reduction potential [4]: -239 mV

Structure (SMILES): COC(=O)/C=C/c1c(C(=O)OC)c2c(n1C)C(=O)C=C(N1CCOCC1)C2=O [E.O. 55, Methyl 3-methoxycarbonyl-1-methyl-5-morpholino-2-[1H-indole-4,7-dione]acrylate]
- IC50 (L1210 cells; [6]): 1.4 µg/mL (≈ 3.6 µM)
- IC50 [3, 7]: 8.9 µg/mL (≈ 22.9 µM)
- E1/2, halve wave reduction potential [4]: -240 mV

Structure (SMILES): CN(C)c1nc(N(C)C)nc(N(C)C)n1 [HMM]
- toxic deaths (Ovarian (MRI-H-207) line; 150 mg/kg, days of treatment 0,2,4,6): 1/6

Structure (SMILES): CN(Cc1cnc2nc(N)nc(N)c2n1)c1ccc(C(=O)N[C@@H](CCC(=O)O)C(=O)O)cc1 [Methotrex., reference compound]
- in vitro activity score, WiDr (WiDr cells; colon tumour; 0.01 μg/ml): -
- T/C % (Ovarian (MRI-H-207) line; [10]): 47%
- toxic deaths (Ovarian (MRI-H-207) line; [10]): 2/7
- in vitro activity score, MCF-7 (MCF7 breast cancer cells; 0.01 μg/ml): -
- in vitro activity score, MCF-7 (MCF7 breast cancer cells; 0.1 μg/ml): -
- in vitro activity score, MCF-7 (MCF7 breast cancer cells; 1.0 μg/ml): -
- in vitro activity score, MCF-7 (MCF7 breast cancer cells; 10 μg/ml): -
- in vitro activity score, A 204 ([2]; 0.1 μg/ml): +
- in vitro activity score, A 204 ([2]; 1.0 μg/ml): +
- in vitro activity score, A 204 ([2]; 10 μg/ml): +
- in vitro activity score, IgR-37 (IgR37 cells melanoma; 0.01 μg/ml): -
